Laboratory results taken from patent US10633351B2, “Halogenated compound and axially chiral isomer thereof” (MEDSHINE DISCOVERY INC., priority 2016, dated 2020).
Where two headings read alike, the source gives them in different places.

Experiments:
URAT-1 = molecular target: T1, URAT-1 (Homo sapiens, UniProt Q96S37); assay: Inhibition of 14C-labelled uric acid transport in MDCK cell line stably transfected with the URAT-1 gene; assay type: cell-based; settings: for IC50: MDCK cells stably transfected with URAT-1, 14C uric acid 50 uM, read-out: IC50 against URAT-1
T1 construct: expressed in transfected cells; host or cells: MDCK
T1 sequence (Q96S37 1-553): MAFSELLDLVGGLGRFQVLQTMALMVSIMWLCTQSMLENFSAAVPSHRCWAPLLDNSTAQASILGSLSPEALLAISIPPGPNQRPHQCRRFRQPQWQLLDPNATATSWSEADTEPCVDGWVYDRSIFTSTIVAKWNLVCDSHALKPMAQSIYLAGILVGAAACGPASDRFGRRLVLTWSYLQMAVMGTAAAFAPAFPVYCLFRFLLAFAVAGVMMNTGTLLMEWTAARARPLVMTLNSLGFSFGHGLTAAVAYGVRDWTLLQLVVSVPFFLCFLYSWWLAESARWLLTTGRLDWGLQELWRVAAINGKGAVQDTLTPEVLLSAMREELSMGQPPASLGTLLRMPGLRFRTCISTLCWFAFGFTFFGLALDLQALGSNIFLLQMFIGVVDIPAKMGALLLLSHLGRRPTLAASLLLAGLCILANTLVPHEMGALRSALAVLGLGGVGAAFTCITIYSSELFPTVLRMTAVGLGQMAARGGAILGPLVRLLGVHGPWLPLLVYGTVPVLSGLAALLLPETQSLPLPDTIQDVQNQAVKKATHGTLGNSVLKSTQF
Source text: The inventors examined the ability of these compounds to inhibit the transport of labeled uric acid by MDCK cell lines stably transfected with the human URAT1 gene.
Determination of the IC50 value of the inhibitory activity of the compound against uric acid reabsorption by the MDCK cell line stably transfected with the URAT-1 (uric acid transporter) gene.
URAT-1 (MDCK) cell line: the MDCK cell line stably transfected with the URAT-1 gene
Cell culture medium: MEM culture medium added 10% fetal bovine serum (FBS), 1% sodium pyruvate and 250 ug/ml G418.
4) cells were diluted to 2.5×10^5/mL with the culture medium, and the diluted cells were added into a rat tail collagen-coated 24-well plate (800 uL/well, 2×10^5 cells/well). The plate was incubated overnight at 37° C. in a 5% CO2 incubator.
1) cells were seeded into 24-well plate, and supernatant was discarded after 16-18 h. The cells were washed twice using 600 ul HBSS buffer.
2) HBSS buffer was removed and 180 ul of HBSS buffer was added into each well again.
1) powder of compounds was dissolved into 100% DMSO, and diluted into 6 concentration points by 3-fold dilution, or into 2 concentration points by 10-fold dilution, and the highest starting concentration was 50 mM.
2) 5 ul DMSO solution in step 1) was transferred into 120 ul of HBSS buffer to make a 25-fold dilution.
3) 10 ul diluted solution in step 2) was added into 24-well plate, and the plate was incubated for 15 min at 37° C. in a 5% CO2 incubator. The final concentration of DMSO was 0.2%. The control well contained 0.2% DMSO without compound.
^14C-labelled uric acid was diluted and added into plate, and the final concentration was 50 uM. The plate was incubated for 10 min at 37° C. in a 5% CO2 incubator. After supernatant was discarded, cells were washed with HBSS buffer twice. Cells was lysed with 0.1M NaOH. And then cell lysis solution was collected into liquid scintillation tube and added with liquid scintillation solution. The signal was read by liquid scintillation counter Tri-Carb.
URAT-1 inhibition by the treatment of the compounds was analyzed by calculating the percentage of inhibition according to […] data. Non-linear curve fitting analysis on the percent inhibition (inh %) data using GraphPad Prism software generate the IC50 value.

[1] = Pharmacokinetics in SD rats after IV and PO administration; assay type: in vivo; settings: rat; for C0: read-out: Starting concentration C0; for Cmax: read-out: Peak concentration Cmax; for MRT inf: read-out: Detention time MRT0-inf; for half-life: read-out: Half-life T1/2 (converted)
Experimental: Drug concentrations in plasma of (−)-WX001 and (+)-WX002 were measured by LC/MS/MS method at different times after SD rats as tested animals were administered (−)-WX001 and (+)-WX002 by IV (intravenous injection) and PO (gavage), and the pharmacokinetic behavior of the compound in the present invention in rats was investigated, and its pharmacokinetic characteristics were evaluated.
12 healthy adult male SD rats were divided into 4 groups (each compound contained IV and PO group), 3 rats per group. SD rats were purchased from Shanghai Slac Laboratory Animal CO.LTD, whose animal production license number was SCXK (Shanghai) 2012-0002.
The appropriate amount of the sample was weighed, added a certain amount of DMSO and ultrasonic dissolved, and then was added 20% hydroxypropyl-β-cyclodextrin solution to give tested compound which was 1 mg/mL 5% DMSO/95% 20% HPCD clear solution used for IV and PO administration.
12 SD rats were divided into 4 groups and there were 3 male rats in each group, and administrated by IV, PO, respectively after fasting overnight. The dose of IV was 2 mg/kg and administration volume was 2 mL/kg; the dose of PO was 10 mg/kg and administration volume was 10 mL/kg.
In group of IV, about 200 μL of blood was collected at 0.083, 0.25, 0.5, 1, 2, 4, 6, 8, 24 hour after administration, placed in an anticoagulant tube of K2-EDTA, centrifuged at 3000 rpm for 15 minutes, and then plasma was separated and stored at −80° C. In group of PO, blood was collected at 0.25, 0.5, 1, 2, 4, 6, 8, 24 hour after administration, and the other operations were the same as the group of IV. The plasma samples were pretreated through precipitated protein and the plasma concentration was determined by LC/MS/MS method. A linear range of the analytical method was 4.00-6000 nM.

[2] = Metabolite identification after 120 min incubation in human hepatocytes (LC-UV-MSn); assay type: in vitro ADME; settings: for metabolites detected: human hepatocyte metabolism, same condition as (±)-Lesinurad; for Percentage of ultraviolet area: human hepatocytes, 10 μM, 120 min
Experimental: The purpose of this experiment was to confirm the metabolites of a series of compounds after incubation for 120 minutes in human hepatocytes using LC-UV-MS^n (n=1-2) detection. MS and MS^2 data were analyzed using MetaboLynx™ software after data collection.
Alter incubating the sample for 2 h, the protein was precipitated by using acetonitrile containing 01.% formic acid, centrifuged, and the supernatant was taken out and dried an under nitrogen, and dissolved and then injected for analysis.

[3] = human, 0-144 h, after Lesinurad, cited from earlier work
[4] = hepatocyte, rat; cited from earlier work
[5] = hepatocyte, dog; cited from earlier work
[6] = liver microsome, monkey; cited from earlier work
[7] = male, SD, plasma, iv, 2 mg/kg, IV 2 mpk
[8] = male, SD, plasma, po, 10 mg/kg, PO 10 mpk

O=C(O)CSc1nnc(Br)n1-c1c(Cl)cc(C2CC2)c2ccccc12 (racemic) [(±)-WX003]
IC50 (URAT-1): 10.4 µM

O=C(O)CSc1nnc(Br)n1-c1c(Cl)cc(C2CC2)c2ccccc12 (single isomer, unassigned) [(+)-WX002]
IC50 (URAT-1): > 20 µM | inhibitory activity against URAT-1 compared with reference (±)-Lesinurad (URAT-1; URAT1 MDCK cells): significantly improved inhibitory activity | Area under curve AUC0-inf ([1]; IV 2 mpk, 2 mg/kg): 16.775 µM·h | Clearance rate Cl ([1]; IV 2 mpk, 2 mg/kg): 4.56 mL/min/kg | Detention time MRT0-inf ([1]; IV 2 mpk, 2 mg/kg): 3.58 h | Half-life T1/2 ([1]; IV 2 mpk, 2 mg/kg): 3.51 h | apparent volume of distribution Vdss ([1]; IV 2 mpk, 2 mg/kg): 0.97 L/kg | C0 ([1]; IV 2 mpk, 2 mg/kg): 12.9 µM | Peak time Tmax ([1]; PO 10 mpk): 1.67 h | Area under curve AUC0-inf ([1]; PO 10 mpk, 10 mg/kg): 77.436 µM·h | Bioavailability F ([1]; PO 10 mpk, 10 mg/kg): 76% | Detention time MRT0-inf ([1]; PO 10 mpk, 10 mg/kg): 4.82 h | Half-life T1/2 ([1]; PO 10 mpk, 10 mg/kg): 2.68 h | Cmax ([1]; PO 10 mpk, 10 mg/kg): 12 µM | metabolites detected [2]: no metabolites were detected | Percentage of ultraviolet area [2]: 100%

CC(C)(Sc1nnc(Br)n1-c1c(Cl)cc(C2CC2)c2ccccc12)C(=O)O (single isomer, unassigned) [(+)-WX005]
IC50 (URAT-1): 1.4 µM | inhibitory activity against URAT-1 compared with reference (±)-Lesinurad (URAT-1; URAT1 MDCK cells): significantly improved inhibitory activity

O=C(O)CSc1nnc(Br)n1-c1c(Cl)cc(C2CC2)c2ccccc12 (single isomer, unassigned) [(−)-WX001]
IC50 (URAT-1): 8 µM | fold inhibitory activity in vitro compared to the other isomer (+)-WX002 (URAT-1; URAT1 MDCK cells): more than 3 fold | inhibitory activity against URAT-1 compared with reference (±)-Lesinurad (URAT-1; URAT1 MDCK cells): significantly improved inhibitory activity | Tmax ([1]; male, SD, plasma, 10 mg/kg, PO 10 mpk, read-out: Peak time Tmax): 1.67 h | AUC(0-inf) ([1]; male, SD, plasma, iv, 2 mg/kg, IV 2 mpk, read-out: Area under curve AUC0-inf): 33 µM·h | clearance ([1]; male, SD, plasma, iv, 2 mg/kg, IV 2 mpk, read-out: Clearance rate Cl): 2.31 mL/min/kg | MRT inf [1, 7]: 4.4 h | half-life [1, 7]: 2.86 h | C0 [1, 7]: 11.7 µM | Vd ([1]; male, SD, plasma, iv, 2 mg/kg, IV 2 mpk, read-out: apparent volume of distribution Vdss): 0.61 L/kg | bioavailability ([1]; male, SD, plasma, po, 10 mg/kg, PO 10 mpk, read-out: Bioavailability F): 94% | MRT inf [1, 8]: 7.18 h | half-life [1, 8]: 4.86 h | Cmax [1, 8]: 20.6 µM | Area under curve AUC0-inf ([1]; PO 10 mpk, 10 mg/kg): 154.895 µM·h | metabolites detected [2]: no metabolites were detected | Percentage of ultraviolet area [2]: 100%

CC(C)(Sc1nnc(Br)n1-c1c(Cl)cc(C2CC2)c2ccccc12)C(=O)O (single isomer, unassigned) [(−)-WX004]
IC50 (URAT-1): 1.1 µM | inhibitory activity against URAT-1 compared with reference (±)-Lesinurad (URAT-1; URAT1 MDCK cells): significantly improved inhibitory activity

O=C(O)CSc1nncn1-c1ccc(C2CC2)c2ccccc12 [Compound M2]
Percentage of administered dose ([3]; Feces): 4.8% | Percentage of administered dose ([3]; Urine): 0.3%

O=C(O)CSc1nnc(Br)n1-c1ccc(C2(O)CC2)c2ccccc12 [Compound M3]
amount of metabolite / parent found (Total 100) [4]: not detected | Percentage of administered dose ([3]; Feces): 0.3% | Percentage of administered dose ([3]; Urine): 12.0% | amount of metabolite / parent found (Total 100) [5]: not detected | amount of metabolite / parent found (Total 100) [6]: 7.9

O=C(O)CSc1nnc(Br)n1-c1ccc(C2CC2)c2c1C=CC(O)C2O (centres unmarked) [Compound M4]
amount of metabolite / parent found (Total 100) [4]: not detected | Percentage of administered dose ([3]; Feces): 5.0% | Percentage of administered dose ([3]; Urine): 15.7% | amount of metabolite / parent found (Total 100) [5]: not detected

O=C(O)CSc1nncn1-c1ccc(C2(O)CC2)c2ccccc12 [Compound M5]
Percentage of administered dose ([3]; Feces): 3.6%
